Laboratory results reported in US20180220650A1, “PLANT GROWTH REGULATOR COMPOUNDS” (Syngenta Participations AG, priority 2015, published 2018).
Like-named read-outs stand apart in the source and are kept apart here.

Tests used:
[1] = Hydrolytic stability assay; assay type: physicochemical; conditions: for half-life: aqueous buffer with acetonitrile co-solvent, 40° C., read-out: Hydrolytic Stability (t1/2, hours) (converted); for loss of test compound (definitive half-life could not be determined): pH7
Procedure: The objective of the hydrolytic stability assay was to determine the chemical stability of the individual test compounds in a strictly controlled and reproducible environment allowing a comparison of their in-vitro stability under aqueous conditions at pH7 and 9. Due to low solubility of these analogues, a percentage of acentonitrile is added to the system to aid solubility (nominally 10-50%). Prior to conducting the individual assays, 1000 ppm stock solutions of all four test compounds were prepared in methanol. The reagents used in the assays were prepared as follows: 20 mM buffer solution: A stock of 20 mM mixed acetate, borate and phosphate buffer was prepared and the pH adjusted to 7 or 9 as required. Test solutions were prepared in LC vials for each test compound in the following manner: Mobile Phase Control: Mobile phase (1 ml)+compound (0.5-40 μl); Hydrolytic Stability: Buffer (1 ml)+compound (0.5-40 μl). The mobile phase and buffer were dispensed into separate glass LC vials, placed into a thermostatted autosampler set at 40° C., and allowed to equilibrate for 30 minutes prior to starting the individual assays. Reactions were initiated by addition of compound and monitored through a series of repeat injections made directly from the vial into an HPLC system at regular time intervals. Initial and subsequent measurements of peak area attributable to the test compound were used to fit exponential half-lives and calculate first-order rate constants. […] Consequently, the percent remaining was recorded at the last assessment time.

[2] = system: NK Falkone corn seeds; assay: Corn seed germination under cold stress; assay type: in vivo; conditions: 15° C.
Procedure: The effect of compounds of Formula (I) on the germination of NK Falkone corn seeds under cold stress was evaluated as follows.
NK Falkone corn seeds were sorted by size using 2 sieves, one excluding very big seeds and the other with round holes of 8 to 9 mm diameter. The seeds retained by the latter sieve were used for the germination test.
The corn seeds were placed in 24 well plates (each plate was considered as one experimental unit or replicate). Germination was initiated by the addition of 250 μl of distilled water containing 0.5% DMSO per well as a mean for compound solubilization. 8 replicates (ie, 8 plates) were used for each treatment characterization. Plates were sealed using seal foil (Polyolefin Art. Nr. 900320) from HJ-BIOANALYTIK. All plates were placed horizontally on trolleys in a climatic chamber at 15° C. or 23° C. in complete darkness. The experiment was laid out in a completely randomized design in climatic chamber with 75% Relative Humidity. Foils were pierced, one hole per well using a syringe after 72 hours for experiments performed at 15° C. and after 24 hours for experiments performed at 23° C.
Germination was followed over time by taking photographs at different time points. Image analysis was performed automatically with a macro which was developed using the Image J software. A dynamic analysis of germination was carried out by fitting a logistic curve. Three parameters were calculated from the logistic curve: the T50; the slope and the plateau. All three parameters have a high agronomical relevance and are key requirements to ensure a good early crop-establishment. The T50, slope and plateau for a selection of compounds are outlined in Table 2 below. All the values are expressed as percentages compared to an untreated control. All the three parameters are calculated considering 8 replicates and the kinetic parameters are separately determined for each germination curve. Data in bold indicate germination enhancing statistically significant differences between treated seeds and untreated control (p<0.05). • T50 corresponds to the time needed for half of the seed population to germinate. Higher negative %-values indicate faster germination. • Slope indicates how synchronous the germination of the seed population is. Positive values indicate steeper curve. The steeper the curve, the better and more uniform the germination is. • Plateau provides information about the final germination rate and it is expressed in percentage.
Positive values indicate a larger number of seeds germinated in a given period.

[3] = Soil stability assay (Stein clay loam soil); assay type: physicochemical; conditions: for Soil Stability (t1/2, hours): Stein soil:sand 1:1, 0.3 μg per gram of soil, dark, 20° C.
Description: It is highly desirable that agrochemicals applied to soil in order to deliver a beneficial biological effect can exist in the soil for a prolonged period of time with minimal degradation. However, a biologically active agrochemical compound may undergo chemical transformation in soil, leading to decreased levels of activity and a decrease in a desired biological effect. Simple laboratory degradation studies can be used to evaluate the disappearance due to biotic and abiotic processes of a compound in soil. The time taken for a compound to degrade in soil allows the estimation of their half-life (t1/2), which corresponds to the time in which 50% of the compound under evaluation is degraded in soil. […] Stock standard solutions were prepared by dissolving 1 mg of each test compound (ie, compounds (Ib-1, Ib-19 and AB01) in acetonitrile. The stock standard solutions were stored at 6° C. Working standard solutions were then obtained by a series of dilutions of the stock standard solutions for an external calibration. A treatment solution of 100 μg/mL concentration for each test compound was prepared in acetonitrile:water (6:4)(v:v). Soil samples used for this soil stability assay were collected at the Syngenta Research Centre location in Stein (Switzerland). The soil was classified as clay loam soil. Certain physical properties of the soil are described in Table 4. 2 mm sieved Stein soil was mixed with sand at ratio 1:1 prior to starting the laboratory soil degradation experiment. 10 g of the sand-soil mix (air-dried basis) was weighed into 50 ml Corning® polypropylene centrifuge tubes and soil moisture was adjusted at 45% of the field capacity. Chemical application was performed by applying 30 μl of a 100 μg/mL solution of each test compound to 10 g soil vessel corresponding to a final concentration of 0.3 μg test compound per gram of soil. Three replicates were considered for each test compound. Treated tubes were incubated in the dark at 20° C.±0.5 with 85% relative humidity. For the estimation of half-life, different sampling times of 0, 4, 8, 24, 72, 168 and 336 hours were considered. […] The half-lives were calculated by an exponential regression analysis (single first order kinetic model) plotting the percentage of recovered compound in soil against the time. […] After centrifugation at 3500 rpm for 5 minutes, an aliquot of the supernatant was collected and analyzed via UPLC-MS (Waters Acquity UPLC-MS PDA-Detection: 254 nm- and SQD-Zspray ESI, APCI, ESCi®-; Waters Acquity UPLC Column HSS T3 2.1×30 mm-1.8 μm; Gradient mobile phase with H2O:MeOH (9:1, v:v)+0.1% HCOOH (solvent A) and MeCN+0.1% HCOOH (solvent B); 30% to 100% of solvent B in 1 min, then 100% of solvent B for 0.45 min and then down to 30% solvent B at 1.5 min.; flow rate 0.75 mL·min−1).

CC1=CC(O/C=C2/C(=O)O[C@]3(C)CC[C@H]4C(C)(C)CCC[C@]4(C)[C@@H]23)OC1=O (stereo partly shown) [AB01]
half-life ([1]; pH 7 + 25% MeCN): > 17.6 h | half-life ([1]; pH 9 + 25% MeCN): 3 h | loss of test compound (definitive half-life could not be determined) [1]: insufficient loss was observed | Plateau (% vs control) ([2]; rate 0.04 μM): −2.20 % vs control | Slope (% vs control) ([2]; rate 0.04 μM): 6.50 % vs control | T50 (% vs control) ([2]; rate 0.04 μM): −1.80 % vs control | Plateau (% vs control) ([2]; rate 0.2 μM): −2.20 % vs control | Slope (% vs control) ([2]; rate 0.2 μM): 10.00 % vs control | T50 (% vs control) ([2]; rate 0.2 μM): 0.50 % vs control | Plateau (% vs control) ([2]; rate 1 μM): 3.00 % vs control | Slope (% vs control) ([2]; rate 1 μM): 27.50 % vs control | T50 (% vs control) ([2]; rate 1 μM): −2.30 % vs control | Plateau (% vs control) ([2]; rate 5 μM): 1.30 % vs control | Slope (% vs control) ([2]; rate 5 μM): 16.50 % vs control | T50 (% vs control) ([2]; rate 5 μM): −1.90 % vs control | Soil Stability (t1/2, hours) [3]: 38 h

CC1=C[C@H](O/C=C2/C(=O)O[C@@H]3c4ccccc4C[C@H]23)OC1=O [GR-24]
Plateau (% vs control) ([2]; rate 0.08 μM, final germination rate): 2.10 % vs control | Slope (% vs control) ([2]; rate 0.08 μM, synchrony of germination): −8.50 % vs control | T50 (% vs control) ([2]; rate 0.08 μM, time for half of seeds to germinate): −0.10 % vs control | Plateau (% vs control) ([2]; rate 0.4 μM): 0.90 % vs control | Slope (% vs control) ([2]; rate 0.4 μM): 0.20 % vs control | T50 (% vs control) ([2]; rate 0.4 μM): −1.80 % vs control | Plateau (% vs control) ([2]; rate 2 μM): −1.40 % vs control | Slope (% vs control) ([2]; rate 2 μM): −0.80 % vs control | T50 (% vs control) ([2]; rate 2 μM): −0.50 % vs control | Plateau (% vs control) ([2]; rate 10 μM): 1.50 % vs control | Slope (% vs control) ([2]; rate 10 μM): 7.40 % vs control | T50 (% vs control) ([2]; rate 10 μM): −2.40 % vs control

CC1=C(C)C(O/C=C2/C(=O)O[C@]3(C)CC[C@H]4C(C)(C)CCC[C@]4(C)[C@@H]23)N(c2ccccc2)C1=O (stereo partly shown) [Ib-1]
half-life ([1]; pH 7 + 25% MeCN): > 18.1 h | half-life ([1]; pH 9 + 25% MeCN): > 17.8 h | Soil Stability (t1/2, hours) [3]: >720 h

CC1=C(C)C(O/C=C2/C(=O)O[C@]3(C)CC[C@H]4C(C)(C)CCC[C@]4(C)[C@@H]23)OC1=O (stereo partly shown) [Ib-19]
half-life ([1]; pH 7 + 25% MeCN): > 17.6 h | half-life ([1]; pH 9 + 25% MeCN): 19.4 h | loss of test compound (definitive half-life could not be determined) [1]: insufficient loss was observed | hydrolytic stability compared to the prior art compound ([1]; pH9): superior hydrolytic stability | Plateau (% vs control) ([2]; rate 0.04 μM): 7.10 % vs control | Slope (% vs control) ([2]; rate 0.04 μM): 13.60 % vs control | T50 (% vs control) ([2]; rate 0.04 μM): −1.10 % vs control | Plateau (% vs control) ([2]; rate 0.2 μM): −4.60 % vs control | Slope (% vs control) ([2]; rate 0.2 μM): 11.40 % vs control | T50 (% vs control) ([2]; rate 0.2 μM): −3.20 % vs control | Plateau (% vs control) ([2]; rate 1 μM): 3.00 % vs control | Slope (% vs control) ([2]; rate 1 μM): 7.60 % vs control | T50 (% vs control) ([2]; rate 1 μM): 0.20 % vs control | Plateau (% vs control) ([2]; rate 5 μM): 8.30 % vs control | Slope (% vs control) ([2]; rate 5 μM): 24.20 % vs control | T50 (% vs control) ([2]; rate 5 μM): −2.80 % vs control | soil stability compared to prior art compound AB01 ([3]; Stein soil): superior soil stability | Soil Stability (t1/2, hours) [3]: 280 h
